Measured values: patent US8686150B2 (Sanofi, priority 2011, dated 2014)

target: T1, human full-length recombinant PKC βII (Homo sapiens, UniProt P05771); assay: Determination of PKC βII inhibition (Caliper mobility-shift kinase assay, Fluorescein-RFARKGSLRQKNV peptide substrate); format: biochemical; conditions: example compounds at a final concentration of 1.14 μM (±0.15 μM)
T1 construct: Active human full-length recombinant PKC βII; purchased Invitrogen GmbH, Darmstadt, Germany
Experimental: Determination of PKC βII Inhibition
PKC βII Inhibition was Determined According to the Following Protocol:
Active human full-length recombinant PKC βII and the peptide substrate, Fluorescein-RFARKGSLRQKNV, were purchased from Invitrogen GmbH, Darmstadt, Germany. Adenosine-5′-triphosphate (ATP), bovine serum albumine (BSA), dimethylsulphoxide (DMSO), 4-(2-hydroxyethyl)piperazine-1-ethanesulfonic acid (Hepes), Triton X-100, 1,2-Dioleoyl-sn-glycerol (DAG), L-G-Phosphatidyl-L-serine (PS), calcium chloride (CaCl2), and Pluronic F-68 were purchased from Sigma-Aldrich, Munich, Germany. Magnesium chloride, 1 M sodium hydroxide solution, 1M hydrochloric acid solution and EDTA were obtained from Merck Biosciences, Darmstadt, Germany.
Test compounds were diluted to three times the test concentration in buffer 1 (30 mM Hepes-NaOH, pH 7.4, 0.01% Pluronic F-68 and 3% (v/v) DMSO). The PKC enzyme was diluted to a concentration of 30 ng/ml in buffer 2 (30 mM Hepes-NaOH, pH 7.4, 15 mM MgCl2, 150 μM CaCl2, 150 μg/ml PS, 60 μg/ml DAG, and 0.045% (w/v) Triton X-100). The peptide substrate and ATP were diluted to concentrations of 3 μM and 120 μM, respectively, in buffer 2. Two μl of the compound solution were mixed with 2 μl of the diluted enzyme in a 384-well small volume microtiter plate (Greiner, Bio-One, Frickenhausen, Germany), and the kinase reaction was initiated by addition of 2 μl of the solution containing peptide substrate and ATP. After 60 min incubation at 32° C., the reaction was stopped by addition of 20 μl of a solution containing 130 mM Hepes-NaOH, pH 7.4. 0.0195% (v/v) Brij-35, 6.5 mM EDTA. 0.13% chip coating reagent 3 (Caliper Lifescience Inc, Hopkinton, Mass.) and 6.5% (v/v) DMSO. Phosphorylation of the substrate peptide was then detected on a Caliper 3000 instrument essentially as described by Pommereau et al (J. Biomol. Screening 2004, 9(5), 409-416). Separation conditions were as follows: Pressure −0.8 psi, upstream voltage −3000 V, downstream voltage −800 V. Positive controls (buffer 1 instead of compound) and negative controls (buffer 1 instead of compound and buffer 2 instead of kinase solution) were run in parallel on each plate. Fractional turnover (R) was determined as the height of the peak of the phosphorylated peptide product divided by the sum of the unphosphorylated substrate and phosphorylated product peak heights. Percent-inhibition values for the test compounds were determined using the formula % Inhibition=100*(1−(Rcompound−Rnegative control)/(Rpositive control−Rnegative control).
In the following table % inhibition values observed with example compounds at a final concentration of 1.14 μM (±0.15 μM) are listed: […]

T1 sequence (P05771 1-673 isoform P05771-2): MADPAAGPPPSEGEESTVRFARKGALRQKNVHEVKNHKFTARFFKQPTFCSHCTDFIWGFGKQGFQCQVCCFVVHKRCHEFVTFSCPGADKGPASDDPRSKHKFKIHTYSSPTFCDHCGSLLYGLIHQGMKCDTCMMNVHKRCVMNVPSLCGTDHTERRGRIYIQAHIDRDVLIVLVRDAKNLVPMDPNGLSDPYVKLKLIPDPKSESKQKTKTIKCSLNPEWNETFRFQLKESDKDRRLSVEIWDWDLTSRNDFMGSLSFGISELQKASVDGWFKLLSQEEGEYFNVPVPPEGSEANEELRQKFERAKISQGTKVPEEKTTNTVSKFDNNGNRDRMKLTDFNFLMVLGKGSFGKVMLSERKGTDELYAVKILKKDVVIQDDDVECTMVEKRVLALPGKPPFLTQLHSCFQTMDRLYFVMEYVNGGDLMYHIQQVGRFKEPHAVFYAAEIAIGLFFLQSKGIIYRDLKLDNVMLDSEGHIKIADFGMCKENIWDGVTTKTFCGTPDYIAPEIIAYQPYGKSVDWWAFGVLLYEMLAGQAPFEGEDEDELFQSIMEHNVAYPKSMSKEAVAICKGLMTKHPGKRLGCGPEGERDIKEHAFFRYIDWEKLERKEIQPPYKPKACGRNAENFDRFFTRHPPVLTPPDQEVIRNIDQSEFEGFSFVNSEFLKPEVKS

Point of comparison: `Cc1n[nH]c2nc(-c3ccc(O)cc3)cc(C(=O)NCCN3CCCC3)c12` [Example 35, 6-(4-Hydroxy-phenyl)-3-methyl-1H-pyrazolo[3,4-b]pyridine-4-carboxylic acid (2-pyrrolidin-1-yl-ethyl)-amide], inhibition at 1.14 µM 52%. Against it:
- Cc1n[nH]c2nc(-c3ccc(O)cc3)cc(C(=O)N3CCNCC3c3ccco3)c12 (stereo not shown) [Example 30, (2-Furan-2-yl-piperazin-1-yl)-[6-(4-hydroxy-phenyl)-3-methyl-1H-pyrazolo[3,4-b]pyridin-4-yl]-methanone] — higher, 96%
- Cc1n[nH]c2nc(-c3ccc(O)cc3)cc(C(=O)N3CCNCC3c3cccs3)c12 (stereo not shown) [Example 31, [6-(4-Hydroxy-phenyl)-3-methyl-1H-pyrazolo[3,4-b]pyridin-4-yl]-(2-thiophen-2-yl-piperazin-1-yl)-methanone] — higher, 99%
- Cc1n[nH]c2nc(-c3ccc(O)cc3)cc(C(=O)N3CCNCC3c3ccc4c(c3)OCO4)c12 (stereo not shown) [Example 32, (2-Benzo[1,3]dioxol-5-yl-piperazin-yl)-[6-(4-hydroxy-phenyl)-3-methyl-1H-pyrazolo[3,4-b]pyridin-4-yl]-methanone] — higher, 98%
- Cc1n[nH]c2nc(-c3ccc(O)cc3)cc(C(=O)N3CC(C(C)(C)N)C3)c12 [Example 33, [3-(1-Amino-1-methyl-ethyl)-azetidin-1-yl]-[6-(4-hydroxy-phenyl)-3-methyl-1H-pyrazolo[3,4-b]pyridin-4-yl]-methanone] — higher, 91%
- Cc1n[nH]c2nc(-c3ccc(O)cc3)cc(C(=O)N3CCC(CN)(c4ccccc4)CC3)c12 [Example 34, (4-Aminomethyl-4-phenyl-piperidin-1-yl)-[6-(4-hydroxy-phenyl)-3-methyl-1H-pyrazolo[3,4-b]pyridin-4-yl]-methanone] — higher, 69%
- Cc1n[nH]c2nc(-c3ccc(O)cc3)cc(C(=O)N3CCN(C(C)C)CC3)c12 [Example 36, [6-(4-Hydroxy-phenyl)-3-methyl-1H-pyrazolo[3,4-b]pyridin-4-yl]-(4-isopropyl-piperazin-1-yl)-methanone] — lower, 40%
- Cc1n[nH]c2nc(-c3ccc(O)cc3)cc(C(=O)N3CCN(C)CC3)c12 [Example 37, [6-(4-Hydroxy-phenyl)-3-methyl-1H-pyrazolo[3,4-b]pyridin-4-yl]-(4-methyl-piperazin-1-yl)-methanone] — higher, 53%
- Cc1n[nH]c2nc(-c3ccc(O)cc3)cc(C(=O)NCCN(C)C)c12 [Example 38, 6-(4-Hydroxy-phenyl)-3-methyl-1H-pyrazolo[3,4-b]pyridine-4-carboxylic acid (2-dimethylamino-ethyl)-amide] — higher, 80%
- Cc1n[nH]c2nc(-c3ccc(O)cc3)cc(C(=O)N3CCN(C4CCC4)CC3)c12 [Example 39, (4-Cyclobutyl-piperazin-1-yl)-[6-(4-hydroxy-phenyl)-3-methyl-1H-pyrazolo[3,4-b]pyridin-4-yl]-methanone] — lower, 45%
- Cc1n[nH]c2nc(-c3ccc(O)cc3)cc(C(=O)N(C)CCNC(C)(C)C)c12 [Example 40, 6-(4-Hydroxy-phenyl)-3-methyl-1H-pyrazolo[3,4-b]pyridine-4-carboxylic acid (2-tert-butylamino-ethyl)-methyl-amide] — lower, 38%
- Cc1n[nH]c2nc(-c3ccc(O)cc3)cc(C(=O)NC3(C)CCNCC3)c12 [Example 41, 6-(4-Hydroxy-phenyl)-3-methyl-1H-pyrazolo[3,4-b]pyridine-4-carboxylic acid (4-methyl-piperidin-4-yl)-amide] — higher, 95%
- Cc1n[nH]c2nc(-c3ccc(O)cc3)cc(C(=O)N3CCNCC34Cc3ccccc3C4)c12 [Example 42, (1,3-Dihydro-spiro[indene-2,2′-piperazin]-1′-yl)-[6-(4-hydroxy-phenyl)-3-methyl-1H-pyrazolo[3,4-b]pyridin-4-yl]-methanone] — higher, 72%
- Cc1n[nH]c2nc(-c3ccc(O)cc3)cc(C(=O)NC3CNCC3C)c12 (stereo not shown) [Example 43, 6-(4-Hydroxy-phenyl)-3-methyl-1H-pyrazolo[3,4-b]pyridine-4-carboxylic acid (4-methyl-pyrrolidin-3-yl)-amide] — higher, 81%
- CCOC1CNCC1NC(=O)c1cc(-c2ccc(O)cc2)nc2[nH]nc(C)c12 (stereo not shown) [Example 44, 6-(4-Hydroxy-phenyl)-3-methyl-1H-pyrazolo[3,4-b]pyridine-4-carboxylic acid (4-ethoxy-pyrrolidin-3-yl)-amide] — higher, 83%
- Cc1n[nH]c2nc(-c3ccc(O)cc3)cc(C(=O)NC3CNCC3c3ccccc3)c12 (stereo not shown) [Example 45, 6-(4-Hydroxy-phenyl)-3-methyl-1H-pyrazolo[3,4-b]pyridine-4-carboxylic acid (4-phenyl-pyrrolidin-3-yl)-amide] — higher, 84%
- CCCC1(N)CCN(C(=O)c2cc(-c3ccc(O)cc3)nc3[nH]nc(C)c23)CC1 [Example 46, (4-Amino-4-propyl-piperidin-1-yl)-[6-(4-hydroxy-phenyl)-3-methyl-1H-pyrazolo[3,4-b]pyridin-4-yl]-methanone] — higher, 76%
- CCCC1(N)CCN(C(=O)c2cc(-c3ccc(O)cc3)nc3[nH]nc(C)c23)C1 (stereo not shown) [Example 47, (3-Amino-3-propyl-pyrrolidin-1-yl)-[6-(4-hydroxy-phenyl)-3-methyl-1H-pyrazolo[3,4-b]pyridin-4-yl]-methanone] — higher, 70%
- CCCC1(N)CCCN(C(=O)c2cc(-c3ccc(O)cc3)nc3[nH]nc(C)c23)C1 (stereo not shown) [Example 48, (3-Amino-3-propyl-piperidin-1-yl)-[6-(4-hydroxy-phenyl)-3-methyl-1H-pyrazolo[3,4-b]pyridin-4-yl]-methanone] — higher, 70%
- CCC1(NC(=O)c2cc(-c3ccc(O)cc3)nc3[nH]nc(C)c23)CCNCC1 [Example 49, 6-(4-Hydroxy-phenyl)-3-methyl-1H-pyrazolo[3,4-b]pyridine-4-carboxylic acid (4-ethyl-piperidin-4-yl)-amide] — higher, 97%
- Cc1n[nH]c2nc(-c3ccc(O)cc3)cc(C(=O)NCCNC(C)C)c12 [Example 50, 6-(4-Hydroxy-phenyl)-3-methyl-1H-pyrazolo[3,4-b]pyridine-4-carboxylic acid (2-isopropylamino-ethyl)-amide] — higher, 81%
- COc1cccc(C(CN)NC(=O)c2cc(-c3ccc(O)cc3)nc3[nH]nc(C)c23)c1 (stereo not shown) [Example 51, 6-(4-Hydroxy-phenyl)-3-methyl-1H-pyrazolo[3,4-b]pyridine-4-carboxylic acid [2-amino-1-(3-methoxy-phenyl)-ethyl]-amide] — higher, 85%
- Cc1ccc(C(CN)NC(=O)c2cc(-c3ccc(O)cc3)nc3[nH]nc(C)c23)cc1 (stereo not shown) [Example 52, 6-(4-Hydroxy-phenyl)-3-methyl-1H-pyrazolo[3,4-b]pyridine-4-carboxylic acid (2-amino-1-p-tolyl-ethyl)-amide] — higher, 86%
- Cc1n[nH]c2nc(-c3ccc(O)cc3)cc(C(=O)N3CCNCC3)c12 [Example 53, [6-(4-Hydroxy-phenyl)-3-methyl-1H-pyrazolo[3,4-b]pyridin-4-yl]-piperazin-1-yl-methanone] — higher, 92%
- Cc1n[nH]c2nc(-c3ccc(O)cc3)cc(C(=O)N3CCN(C(N)=O)CC3)c12 [Example 54, 4-[6-(4-Hydroxy-phenyl)-3-methyl-1H-pyrazolo[3,4-b]pyridine-4-carbonyl]-piperazine-1-carboxylic acid amide] — lower, 41%
- O=C(c1cc(-c2ccc(O)cc2)nc2[nH]nc(C3CC3)c12)N1CCNCC1 [Example 55, [3-Cyclopropyl-6-(4-hydroxy-phenyl)-1H-pyrazolo[3,4-b]pyridin-4-yl]-piperazin-1-yl-methanone] — lower, 27%
- Cc1n[nH]c2nc(-c3ccc(O)cc3F)cc(C(=O)N3CCNCC3(C)C)c12 [Example 56, (2,2-Dimethyl-piperazin-1-yl)-[6-(2-fluoro-4-hydroxy-phenyl)-3-methyl-1H-pyrazolo[3,4-b]pyridin-4-yl]-methanone] — higher, 96%
- Cc1n[nH]c2nc(-c3ccc(O)cc3F)cc(C(=O)N3CCNC[C@H]3c3ccccc3)c12 [Example 57, [6-(2-Fluoro-4-hydroxy-phenyl)-3-methyl-1H-pyrazolo[3,4-b]pyridin-4-yl]-((R)-2-phenyl-piperazin-1-yl)-methanone] — higher, 99%
